The source made the active and inactive calls.
Experiments:
Melanocortin receptor 4 = Melanocortin receptor 4 (Homo sapiens, UniProt P32245); test: MC4R antagonist potency on cAMP, dose response, cell-based, TR-FRET, biased antagonists (AID 602298); type: functional;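 note: antagonist potency against agonist-stimulated cAMP production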
Protein RecA = biological target: T1, Protein RecA (Mycobacterium tuberculosis, UniProt P9WHJ3); test: Fluorescence Cell-Free Homogeneous Dose Retest to Identify Inhibitors of RecA-Intein Splicing Activity. [Related pubchem assays (depositor defined):AID2097, AID2223, AID489010, AID492950]; type: functional
T1 sequence (P9WHJ3 whole entry): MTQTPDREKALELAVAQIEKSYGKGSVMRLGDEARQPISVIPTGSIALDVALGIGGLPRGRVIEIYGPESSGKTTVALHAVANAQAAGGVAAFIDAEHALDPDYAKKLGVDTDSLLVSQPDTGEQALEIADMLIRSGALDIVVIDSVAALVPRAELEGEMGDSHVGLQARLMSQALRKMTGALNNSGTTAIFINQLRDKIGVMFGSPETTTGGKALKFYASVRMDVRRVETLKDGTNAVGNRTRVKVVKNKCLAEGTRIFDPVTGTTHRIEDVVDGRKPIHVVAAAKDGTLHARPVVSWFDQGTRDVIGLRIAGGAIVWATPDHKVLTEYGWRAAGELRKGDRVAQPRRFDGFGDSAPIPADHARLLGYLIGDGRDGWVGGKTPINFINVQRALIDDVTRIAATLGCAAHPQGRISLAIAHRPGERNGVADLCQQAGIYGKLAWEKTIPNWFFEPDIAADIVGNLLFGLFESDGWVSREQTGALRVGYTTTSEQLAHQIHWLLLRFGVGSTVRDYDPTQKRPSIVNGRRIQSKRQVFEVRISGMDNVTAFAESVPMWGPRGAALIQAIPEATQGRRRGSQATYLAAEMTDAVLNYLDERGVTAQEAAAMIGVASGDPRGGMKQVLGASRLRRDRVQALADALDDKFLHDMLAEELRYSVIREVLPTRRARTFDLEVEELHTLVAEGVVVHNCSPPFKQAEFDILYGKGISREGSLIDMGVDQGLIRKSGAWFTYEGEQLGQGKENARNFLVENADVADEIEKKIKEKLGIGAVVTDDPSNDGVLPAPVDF

[1] = biological target: DNA dC->dU-editing enzyme APOBEC-3A (Homo sapiens, UniProt P31941); test: SAR analysis of small molecule inhibitors of APOBEC3A DNA Deaminase via a fluorescence-based single-stranded DNA deaminase assay.; type: functional; details: read-out: IC50_Mean
Sequence of DNA dC->dU-editing enzyme APOBEC-3A (P31941 whole entry): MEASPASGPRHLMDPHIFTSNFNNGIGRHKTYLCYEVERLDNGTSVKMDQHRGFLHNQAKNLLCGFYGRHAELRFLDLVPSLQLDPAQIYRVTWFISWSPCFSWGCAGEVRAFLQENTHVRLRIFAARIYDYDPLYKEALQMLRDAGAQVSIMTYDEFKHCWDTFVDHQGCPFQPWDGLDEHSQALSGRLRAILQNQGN

[2] = nonselective inhibitors of cellular cAMP signaling, dose response, counter-screen for MC4R biased antagonist project, cell-based, TR-FRET cAMP detection (AID 602305); type: functional;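 note: U2OS cells stimulated with forskolin near its EC80 as the cAMP inducer; potency is for inhibition of forskolin-stimulated cAMP signaling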
[3] = biological target: T2, Replicative DNA helicase DnaB (Mycobacterium tuberculosis, UniProt P9WMR3); test: DnaB intein splicing inhibitors, dose response, biochemical, cell-free fluorescence (AID 449749); type: functional
T2 sequence (P9WMR3 whole entry): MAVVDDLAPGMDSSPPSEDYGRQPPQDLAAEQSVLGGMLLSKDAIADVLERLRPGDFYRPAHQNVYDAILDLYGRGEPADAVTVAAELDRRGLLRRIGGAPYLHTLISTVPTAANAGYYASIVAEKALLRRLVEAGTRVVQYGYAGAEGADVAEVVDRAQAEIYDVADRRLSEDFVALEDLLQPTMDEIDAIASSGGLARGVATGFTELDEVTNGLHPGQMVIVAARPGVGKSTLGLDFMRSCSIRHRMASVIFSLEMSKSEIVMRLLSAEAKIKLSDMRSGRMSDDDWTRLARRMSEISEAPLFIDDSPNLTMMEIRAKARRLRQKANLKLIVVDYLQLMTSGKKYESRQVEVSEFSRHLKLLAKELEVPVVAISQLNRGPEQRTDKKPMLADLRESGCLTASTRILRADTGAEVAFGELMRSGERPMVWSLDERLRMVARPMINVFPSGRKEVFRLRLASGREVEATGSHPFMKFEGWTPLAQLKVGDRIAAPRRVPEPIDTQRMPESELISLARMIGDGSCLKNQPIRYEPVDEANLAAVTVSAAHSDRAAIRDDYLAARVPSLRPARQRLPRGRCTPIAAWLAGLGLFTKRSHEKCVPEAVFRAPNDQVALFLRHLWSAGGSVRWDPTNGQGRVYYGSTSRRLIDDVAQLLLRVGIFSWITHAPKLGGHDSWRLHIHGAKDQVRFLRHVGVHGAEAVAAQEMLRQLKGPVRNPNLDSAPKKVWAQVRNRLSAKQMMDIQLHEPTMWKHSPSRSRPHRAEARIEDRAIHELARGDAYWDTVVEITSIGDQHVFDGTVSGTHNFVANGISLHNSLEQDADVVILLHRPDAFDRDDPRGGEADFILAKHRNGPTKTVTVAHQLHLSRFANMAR

[4] = biological target: DNA dC->dU-editing enzyme APOBEC-3G (Homo sapiens, UniProt Q9HC16); test: APOBEC3G deaminase inhibitors, SAR follow-up, biochemical, fluorescence, single-stranded DNA substrate (AID 602136); type: functional; details: read-out: IC50_Mean
[5] = biological target: T3, Protein disulfide-isomerase (Homo sapiens, UniProt P07237); test: PDI inhibitors, insulin turbidity readout, dose response, biochemical, absorbance, cherry-picked samples, set 2 (AID 624274); type: functional
T3 sequence (P07237 whole entry): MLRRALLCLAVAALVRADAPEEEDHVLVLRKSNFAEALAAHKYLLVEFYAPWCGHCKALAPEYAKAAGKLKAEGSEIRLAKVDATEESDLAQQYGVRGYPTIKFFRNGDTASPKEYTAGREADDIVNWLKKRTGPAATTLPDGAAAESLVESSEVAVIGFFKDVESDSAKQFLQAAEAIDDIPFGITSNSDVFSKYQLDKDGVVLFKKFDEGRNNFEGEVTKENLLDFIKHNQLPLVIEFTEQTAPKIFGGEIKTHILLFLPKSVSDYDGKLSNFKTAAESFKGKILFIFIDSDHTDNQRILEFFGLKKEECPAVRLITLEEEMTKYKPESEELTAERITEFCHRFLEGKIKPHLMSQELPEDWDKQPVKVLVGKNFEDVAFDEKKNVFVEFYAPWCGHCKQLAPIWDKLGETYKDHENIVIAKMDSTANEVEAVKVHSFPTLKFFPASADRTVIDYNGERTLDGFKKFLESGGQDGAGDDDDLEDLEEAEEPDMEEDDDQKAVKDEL

[6] = biological target: T3, Protein disulfide-isomerase; test: PDI inhibitors, insulin aggregation turbidity, dose response, biochemical, absorbance, cherry-picked samples (AID 602350); type: functional
[7] = biological target: T4, Neuropeptides B/W receptor type 1 (Homo sapiens, UniProt P48145); test: GPR7 antagonist potency, late-stage follow-up, cell-based, fluorescence, dose response, set 5 (AID 588566); type: functional
T4 sequence (P48145 whole entry): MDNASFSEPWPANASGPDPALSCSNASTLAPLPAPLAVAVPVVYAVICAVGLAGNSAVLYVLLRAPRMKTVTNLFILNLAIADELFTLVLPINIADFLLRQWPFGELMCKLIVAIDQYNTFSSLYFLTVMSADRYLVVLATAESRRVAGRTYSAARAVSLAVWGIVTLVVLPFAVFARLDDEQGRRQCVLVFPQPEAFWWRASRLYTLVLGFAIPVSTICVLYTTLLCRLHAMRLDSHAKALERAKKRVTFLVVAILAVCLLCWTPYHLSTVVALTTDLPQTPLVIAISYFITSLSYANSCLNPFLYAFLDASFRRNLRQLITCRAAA

[8] = biological target: Melanin-concentrating hormone receptor 1 (Homo sapiens, UniProt Q99705); test: Late-stage fluorescence-based counterscreen for antagonists of the G-protein coupled receptor 7 (GPR7): cell-based dose response assay to identify antagonists of the melanin-concentrating hormone receptor 1 (MCHR1) Set 5.; type: functional
Sequence of Melanin-concentrating hormone receptor 1 (Q99705 whole entry): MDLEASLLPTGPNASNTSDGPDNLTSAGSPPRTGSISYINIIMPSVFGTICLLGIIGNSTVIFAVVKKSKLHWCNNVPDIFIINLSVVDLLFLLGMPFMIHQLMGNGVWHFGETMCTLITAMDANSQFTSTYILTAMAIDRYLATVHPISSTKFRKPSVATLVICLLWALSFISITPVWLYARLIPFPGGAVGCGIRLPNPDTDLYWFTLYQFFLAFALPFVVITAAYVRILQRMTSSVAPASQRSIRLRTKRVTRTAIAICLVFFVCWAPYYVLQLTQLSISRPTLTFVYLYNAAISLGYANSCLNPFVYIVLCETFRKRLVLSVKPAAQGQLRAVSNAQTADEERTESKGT

[9] = biological target: Homeodomain-interacting protein kinase 2 (Homo sapiens, UniProt Q9H2X6); type: functional;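 note: measured within a kinome-wide kinase profiling panel, HIPK2 being one panel member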
[10] = biological target: Mitogen-activated protein kinase kinase kinase kinase 4 (Homo sapiens, UniProt O95819); type: functional
[11] = biological target: Cell division cycle 7-related protein kinase (Homo sapiens, UniProt O00311); type: functional;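 note: value obtained from a kinome-wide kinase panel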
Sequence of Cell division cycle 7-related protein kinase (O00311 whole entry): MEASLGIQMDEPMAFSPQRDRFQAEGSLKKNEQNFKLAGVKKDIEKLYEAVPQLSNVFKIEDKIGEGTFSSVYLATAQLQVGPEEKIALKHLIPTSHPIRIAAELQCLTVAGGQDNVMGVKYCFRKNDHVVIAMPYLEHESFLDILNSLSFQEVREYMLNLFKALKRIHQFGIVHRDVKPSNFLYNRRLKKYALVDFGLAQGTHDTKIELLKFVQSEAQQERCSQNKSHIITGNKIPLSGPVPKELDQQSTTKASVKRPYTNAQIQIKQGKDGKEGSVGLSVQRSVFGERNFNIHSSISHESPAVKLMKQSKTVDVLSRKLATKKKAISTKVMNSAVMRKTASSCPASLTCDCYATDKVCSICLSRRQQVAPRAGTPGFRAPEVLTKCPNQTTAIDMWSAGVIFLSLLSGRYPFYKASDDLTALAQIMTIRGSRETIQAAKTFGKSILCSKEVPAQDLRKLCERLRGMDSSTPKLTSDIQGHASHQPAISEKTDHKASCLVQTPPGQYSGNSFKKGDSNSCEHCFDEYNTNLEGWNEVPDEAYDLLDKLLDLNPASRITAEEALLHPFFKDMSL

[12] = biological target: Glycogen synthase kinase-3 beta (Homo sapiens, UniProt P49841); type: functional;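 note: value comes from a broad kinome profiling panel, with GSK3B as the panel member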
Sequence of Glycogen synthase kinase-3 beta (P49841 whole entry): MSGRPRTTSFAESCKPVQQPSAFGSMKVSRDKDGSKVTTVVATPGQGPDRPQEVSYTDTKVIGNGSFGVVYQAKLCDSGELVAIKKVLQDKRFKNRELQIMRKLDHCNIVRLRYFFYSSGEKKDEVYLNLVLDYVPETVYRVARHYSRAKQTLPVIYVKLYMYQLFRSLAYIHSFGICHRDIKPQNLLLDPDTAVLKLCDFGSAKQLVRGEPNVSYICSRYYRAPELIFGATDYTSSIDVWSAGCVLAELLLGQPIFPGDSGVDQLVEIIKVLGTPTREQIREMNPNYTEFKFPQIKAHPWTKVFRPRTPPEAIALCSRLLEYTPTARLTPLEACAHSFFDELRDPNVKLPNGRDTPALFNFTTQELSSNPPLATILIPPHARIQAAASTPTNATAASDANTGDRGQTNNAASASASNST

[13] = biological target: Dual specificity protein kinase CLK4 (Homo sapiens, UniProt Q9HAZ1); type: functional
[14] = biological target: Interleukin-1 receptor-associated kinase 4 (Homo sapiens, UniProt Q9NWZ3); type: functional
[15] = biological target: T5, Rac GTPase-activating protein 1 (Homo sapiens, UniProt Q9H0H5); test: MgcRacGAP GTPase-activating activity inhibitors, confirmation, biochemical, ADP Hunter fluorescence, primary and confirmatory (AID 624330); type: functional
T5 sequence (Q9H0H5 whole entry): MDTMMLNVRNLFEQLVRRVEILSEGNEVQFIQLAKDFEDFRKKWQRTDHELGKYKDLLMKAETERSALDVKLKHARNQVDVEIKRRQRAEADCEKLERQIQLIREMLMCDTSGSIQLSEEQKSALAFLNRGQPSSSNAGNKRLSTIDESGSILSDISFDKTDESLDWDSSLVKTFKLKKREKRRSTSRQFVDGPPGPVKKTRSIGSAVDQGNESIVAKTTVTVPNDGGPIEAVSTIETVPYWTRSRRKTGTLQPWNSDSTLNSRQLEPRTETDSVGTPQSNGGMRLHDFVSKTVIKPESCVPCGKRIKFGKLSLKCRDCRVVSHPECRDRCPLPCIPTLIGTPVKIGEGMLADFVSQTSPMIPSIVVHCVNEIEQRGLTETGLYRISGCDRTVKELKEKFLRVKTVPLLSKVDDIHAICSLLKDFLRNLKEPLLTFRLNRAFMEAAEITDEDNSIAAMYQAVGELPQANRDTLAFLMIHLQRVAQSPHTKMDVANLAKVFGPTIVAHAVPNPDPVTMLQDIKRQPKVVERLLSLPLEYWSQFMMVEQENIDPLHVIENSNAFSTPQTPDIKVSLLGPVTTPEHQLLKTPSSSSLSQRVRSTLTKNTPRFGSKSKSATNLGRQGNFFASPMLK

[16] = biological target: Dual specificity tyrosine-phosphorylation-regulated kinase 1A (Rattus norvegicus, UniProt Q63470); type: biochemical, Homo sapiens
[17] = biological target: Multidrug resistance protein CDR2 (Candida albicans (strain SC5314 / ATCC MYA-2876) (Yeast), UniProt P78595); test: CaCDR2 efflux pump inhibitors in yeast, dose response, S. cerevisiae AD1-8u, singleplex, Cherry Pick1 hits (AID 588604); type: functional
Sequence of Multidrug resistance protein CDR2 (P78595 whole entry): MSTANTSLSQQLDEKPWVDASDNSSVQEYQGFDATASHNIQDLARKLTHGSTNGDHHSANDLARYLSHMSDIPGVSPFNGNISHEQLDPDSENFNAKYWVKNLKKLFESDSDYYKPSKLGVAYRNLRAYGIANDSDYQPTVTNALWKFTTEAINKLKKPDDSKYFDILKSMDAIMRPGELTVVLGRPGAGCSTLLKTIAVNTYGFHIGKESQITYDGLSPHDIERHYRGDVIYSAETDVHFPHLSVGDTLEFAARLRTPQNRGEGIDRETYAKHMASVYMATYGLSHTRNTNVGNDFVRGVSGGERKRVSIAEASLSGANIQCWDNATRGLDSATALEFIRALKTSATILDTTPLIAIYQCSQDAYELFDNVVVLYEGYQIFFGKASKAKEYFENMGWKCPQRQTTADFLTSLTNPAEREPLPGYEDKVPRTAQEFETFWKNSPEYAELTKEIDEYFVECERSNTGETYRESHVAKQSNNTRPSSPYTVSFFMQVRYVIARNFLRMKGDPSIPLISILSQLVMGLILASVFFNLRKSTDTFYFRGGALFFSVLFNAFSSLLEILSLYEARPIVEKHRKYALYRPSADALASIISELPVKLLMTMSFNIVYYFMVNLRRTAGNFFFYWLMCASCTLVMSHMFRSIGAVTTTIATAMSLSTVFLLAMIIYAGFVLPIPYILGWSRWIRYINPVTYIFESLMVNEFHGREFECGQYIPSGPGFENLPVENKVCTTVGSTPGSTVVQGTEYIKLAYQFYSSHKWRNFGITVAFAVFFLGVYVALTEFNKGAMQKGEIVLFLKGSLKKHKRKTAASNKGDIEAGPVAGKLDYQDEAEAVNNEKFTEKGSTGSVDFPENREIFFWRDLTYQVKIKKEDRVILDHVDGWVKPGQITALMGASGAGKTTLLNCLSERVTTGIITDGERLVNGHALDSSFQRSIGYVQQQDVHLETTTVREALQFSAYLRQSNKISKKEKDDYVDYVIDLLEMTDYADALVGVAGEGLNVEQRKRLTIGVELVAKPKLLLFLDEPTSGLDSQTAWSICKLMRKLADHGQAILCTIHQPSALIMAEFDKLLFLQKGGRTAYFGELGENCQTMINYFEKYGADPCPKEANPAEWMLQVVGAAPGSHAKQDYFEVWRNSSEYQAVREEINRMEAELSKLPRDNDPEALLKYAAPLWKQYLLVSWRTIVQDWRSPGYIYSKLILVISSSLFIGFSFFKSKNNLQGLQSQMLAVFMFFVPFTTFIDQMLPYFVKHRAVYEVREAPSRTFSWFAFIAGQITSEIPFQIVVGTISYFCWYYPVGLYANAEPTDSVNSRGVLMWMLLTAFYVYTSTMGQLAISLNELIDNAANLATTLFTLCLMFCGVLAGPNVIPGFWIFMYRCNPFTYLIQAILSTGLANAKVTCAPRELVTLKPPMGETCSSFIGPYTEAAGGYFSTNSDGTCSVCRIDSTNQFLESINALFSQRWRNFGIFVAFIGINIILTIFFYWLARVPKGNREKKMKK

[18] = biological target: Intestinal-type alkaline phosphatase (Homo sapiens, UniProt P09923); test: inhibition of human intestinal alkaline phosphatase – biochemical, dose response (AID 488876); type: functional
[19] = biological target: 72 kDa type IV collagenase (Homo sapiens, UniProt P08253); test: Dose Response validation of uHTS RPN11 inhibitor hits using a MMP-2 Fluorescence assay.; type: functional
Sequence of 72 kDa type IV collagenase (P08253 whole entry): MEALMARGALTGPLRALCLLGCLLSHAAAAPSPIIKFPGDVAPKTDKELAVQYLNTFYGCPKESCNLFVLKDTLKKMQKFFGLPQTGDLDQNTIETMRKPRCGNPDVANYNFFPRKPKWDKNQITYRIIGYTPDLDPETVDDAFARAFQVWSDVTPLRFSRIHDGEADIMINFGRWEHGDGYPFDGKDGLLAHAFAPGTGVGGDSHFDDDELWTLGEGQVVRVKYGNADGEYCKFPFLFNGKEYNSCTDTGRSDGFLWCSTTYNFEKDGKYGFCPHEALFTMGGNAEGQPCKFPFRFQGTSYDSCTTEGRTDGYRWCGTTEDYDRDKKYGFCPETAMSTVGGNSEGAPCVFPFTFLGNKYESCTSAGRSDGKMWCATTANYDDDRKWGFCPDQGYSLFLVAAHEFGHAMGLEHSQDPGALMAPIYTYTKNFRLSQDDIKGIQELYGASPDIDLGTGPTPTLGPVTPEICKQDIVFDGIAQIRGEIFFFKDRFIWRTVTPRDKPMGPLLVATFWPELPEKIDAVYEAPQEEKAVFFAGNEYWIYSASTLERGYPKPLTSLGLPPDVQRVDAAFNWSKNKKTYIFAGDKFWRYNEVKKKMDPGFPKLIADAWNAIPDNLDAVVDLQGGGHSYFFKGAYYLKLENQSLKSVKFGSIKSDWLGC

[20] = biological target: Intestinal-type alkaline phosphatase (Mus musculus, UniProt P24822); test: PubChem AID 488785; type: functional
Prothrombin = Prothrombin (Bos taurus, UniProt P00735); test: thrombin inhibition, dose response, biochemical, fluorescence polarization, uHTS hits (AID 602369); type: functional
[21] = biological target: T6, Alkaline phosphatase, tissue-nonspecific isozyme (Homo sapiens, UniProt P05186); test: TNAP enzyme inhibition by screening hits, dose response, selectivity assay for mouse IAP inhibitor project, biochemical, human TNAP, uHTS hits (AID 488906); type: functional
T6 sequence (P05186 whole entry): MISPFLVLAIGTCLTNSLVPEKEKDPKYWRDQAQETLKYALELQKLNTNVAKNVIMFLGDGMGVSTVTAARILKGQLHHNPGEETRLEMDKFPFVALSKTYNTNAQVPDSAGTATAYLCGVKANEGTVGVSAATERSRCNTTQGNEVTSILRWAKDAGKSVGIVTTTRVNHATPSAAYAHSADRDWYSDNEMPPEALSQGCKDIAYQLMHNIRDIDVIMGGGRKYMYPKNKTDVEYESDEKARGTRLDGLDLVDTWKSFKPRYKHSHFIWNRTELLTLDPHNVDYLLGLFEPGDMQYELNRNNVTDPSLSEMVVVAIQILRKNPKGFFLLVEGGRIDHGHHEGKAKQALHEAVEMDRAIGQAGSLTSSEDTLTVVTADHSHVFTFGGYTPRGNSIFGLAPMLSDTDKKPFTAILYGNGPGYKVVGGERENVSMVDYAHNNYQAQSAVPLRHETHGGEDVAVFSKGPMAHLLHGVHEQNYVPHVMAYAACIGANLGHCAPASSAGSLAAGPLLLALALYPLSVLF

[22] = biological target: Induced myeloid leukemia cell differentiation protein Mcl-1 (Homo sapiens, UniProt Q07820); type: functional
Sequence of Induced myeloid leukemia cell differentiation protein Mcl-1 (Q07820 whole entry): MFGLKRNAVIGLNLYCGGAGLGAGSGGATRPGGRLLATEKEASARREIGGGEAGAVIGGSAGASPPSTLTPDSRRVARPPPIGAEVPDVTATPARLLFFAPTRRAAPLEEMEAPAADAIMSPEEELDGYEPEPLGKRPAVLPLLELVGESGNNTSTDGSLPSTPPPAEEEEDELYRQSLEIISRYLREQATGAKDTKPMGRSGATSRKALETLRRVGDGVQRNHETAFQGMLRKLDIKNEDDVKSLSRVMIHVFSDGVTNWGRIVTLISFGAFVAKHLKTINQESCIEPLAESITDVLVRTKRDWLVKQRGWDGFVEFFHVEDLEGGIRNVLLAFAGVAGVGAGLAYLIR

[23] = biological target: 26S proteasome non-ATPase regulatory subunit 14 (Homo sapiens, UniProt O00487); test: inhibition of proteasome subunit RPN11 – biochemical, fluorescence polarization, uHTS hits, confirmation (AID 602368); type: functional
Sequence of 26S proteasome non-ATPase regulatory subunit 14 (O00487 whole entry): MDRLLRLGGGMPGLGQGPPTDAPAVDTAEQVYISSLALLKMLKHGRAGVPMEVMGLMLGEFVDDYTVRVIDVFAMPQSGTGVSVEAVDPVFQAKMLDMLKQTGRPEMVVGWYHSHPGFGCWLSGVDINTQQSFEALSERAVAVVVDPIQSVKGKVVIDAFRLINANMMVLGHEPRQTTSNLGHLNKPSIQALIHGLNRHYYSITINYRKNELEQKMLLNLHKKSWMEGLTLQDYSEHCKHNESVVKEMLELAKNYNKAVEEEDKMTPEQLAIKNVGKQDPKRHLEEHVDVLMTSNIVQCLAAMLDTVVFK

SMILES: CS(=O)(=O)c1nc([N+](=O)[O-])nn1CCCc1ccccc1
- IC50 (Melanocortin receptor 4): > 64.5 µM (inactive)
- EC50 (Protein RecA): 14.5 µM (active)
- IC50 [1]: > 99 µM (inactive)
- IC50 [2]: > 64.5 µM (inactive)
- AC50 [3]: 7.7 µM (active)
- IC50 [4]: > 99 µM (inactive)

SMILES: CC(NCC(O)COCc1ccc(Cl)cc1)c1ccccc1 (stereo unspecified)
- AC50 [5]: 0.009 µM (active)
- AC50 [6]: < 0.009 µM (active)

SMILES: N#CC(c1ccccc1)c1cnn(Cc2cccc3ccccc23)c(=O)c1Cl (stereo unspecified)
- IC50 [7]: ~0.702 µM (active)
- IC50 [8]: > 20 µM (inactive)

SMILES: CN(C)CCCOc1cc(-c2ccncc2)cc2[nH]nc(N)c12
- Ki [9]: > 3.16 µM (inactive)
- Ki [10]: 0.794 µM (active)
- Ki [11]: 0.0126 µM (active)
- Ki [12]: 6.31 µM (active)
- Ki [13]: 0.0794 µM (active)
- Ki [14]: 0.158 µM (active)

SMILES: O=C1/C(=C/c2ccc(O)c(O)c2)Oc2cc(O)ccc21 [SULFURETIN]
- IC50 [15]: 20.6 µM (active)
- AC50 [16]: 2.32 µM (active)
- EC50 [17]: 0.424 µM (active)
- IC50 [18]: 66.3 µM (active)
- IC50 [19]: > 100 µM (inactive)
- IC50 [20]: 19.7 µM (active)
- IC50 (Prothrombin): 21.7 µM (active)
- IC50 [21]: 52.9 µM (active)
- IC50 [22]: 1.53 µM (active)
- IC50 [23]: 23.8 µM (active)

Source: ChEMBL document CHEMBL1201862, “PubChem BioAssay data set” (2004)
